Measurements taken from PubChem BioAssay (NCI).
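Grown in 96-well plates, cells were treated for 48 hours with each compound at five concentrations. Insufficient inhibition: endpoint recorded as highest concentration tested. Definition used: TGI = concentration required for complete inhibition of growth.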

How the values were obtained:
Experiment in all cases: NCI anticancer screen, dose series, 48 h
[1] = tested on: KM12 colon
[2] = tested on: DU-145 prostate
[3] = tested on: UACC-62 melanoma
[4] = tested on: EKVX NSCLC
[5] = tested on: A549 NSCLC
[6] = tested on: MOLT-4 leukemia
[7] = tested on: SF-295 CNS
[8] = tested on: SW-620 colon
[9] = tested on: RXF 393 renal
[10] = tested on: HCC-2998 colon
[11] = tested on: MDA-MB-435
[12] = tested on: SK-MEL-5 melanoma
[13] = tested on: SF-539 CNS
[14] = tested on: CCRF-CEM leukemia
[15] = tested on: HCT-15 colon
[16] = tested on: MCF7 breast
[17] = tested on: SNB-19 CNS

SMILES | TGI [1] | TGI [2] | TGI [3] | TGI [4] | TGI [5] | TGI [6] | TGI [7] | TGI [8] | TGI [9] | TGI [10] | TGI [11] | TGI [12] | TGI [13] | TGI [14] | TGI [15] | TGI [16] | TGI [17]
CCOC(=O)c1nc2ccccc2nc1NCc1ccc(OC)c(OC)c1 | > 100 µM | > 100 µM | > 100 µM | > 100 µM | > 100 µM | > 100 µM | > 100 µM | > 100 µM | > 100 µM | > 100 µM | > 100 µM | > 100 µM | > 100 µM | > 100 µM | > 100 µM | > 100 µM | –
N#CCCN(CCC#N)c1ccc(C(N=Nc2ccc(Cl)cc2)=Nc2ccccc2)cc1 | 31.3 µM | 26.9 µM | 21.8 µM | 24.4 µM | 29.1 µM | 89.4 µM | 12 µM | 39.2 µM | 30.8 µM | 20.6 µM | 27.5 µM | 5.13 µM | 29.1 µM | – | 21.2 µM | 28.2 µM | 25 µM
COCCOC(=O)NCn1cc(-c2ccccc2)nn1 | > 100 µM | > 100 µM | – | > 100 µM | > 100 µM | > 100 µM | > 100 µM | > 100 µM | – | > 100 µM | > 100 µM | > 100 µM | > 100 µM | > 100 µM | > 100 µM | > 100 µM | > 100 µM
CC(=O)NC1C(OC(C)C(=O)NC(C(=O)NC(CCC(=O)NCCCNC2c3ccccc3Nc3cccc([N+](=O)[O-])c32)C(N)=O)C(C)C)C(O)C(CO)OC1(C)OCc1ccccc1 (configuration not stated) | 3.48 µM | 0.817 µM | 2.1 µM | 3.43 µM | 1.94 µM | 2.6 µM | 3.23 µM | 1.81 µM | 2.13 µM | 2.2 µM | 2.77 µM | 0.405 µM | – | 4.59 µM | 1.97 µM | 2.85 µM | 3.67 µM
COc1ccc2c(c1)c1c(n2CCN2CCOCC2)-c2cccc(OC)c2CC1 | 53.1 µM | > 100 µM | > 100 µM | – | > 100 µM | 76.7 µM | > 100 µM | > 100 µM | > 100 µM | 63.4 µM | > 100 µM | > 100 µM | > 100 µM | 56.8 µM | > 100 µM | 77.3 µM | –
Cc1ccc(/C=C/C(=N/NC(=O)N/N=C(/C=C/c2ccc(C)cc2)C(C)C)C(C)C)cc1 | > 10 µM | > 10 µM | – | > 10 µM | > 10 µM | > 10 µM | > 10 µM | > 10 µM | > 10 µM | > 10 µM | > 10 µM | – | – | > 10 µM | > 10 µM | > 10 µM | > 10 µM
CC(=O)N1c2ccccc2C2=NN(C)C(=N)SC21 (configuration not stated) | > 100 µM | > 100 µM | – | > 100 µM | > 100 µM | > 100 µM | > 100 µM | > 100 µM | – | > 100 µM | > 100 µM | – | > 100 µM | > 100 µM | > 100 µM | > 100 µM | > 100 µM
COc1ccc(C2C(C#N)=C(S)N(C3OC(COC(C)=O)C(OC(C)=O)C(OC(C)=O)C3OC(C)=O)C(C)=C2C(C)=O)cc1 (configuration not stated) | > 100 µM | > 100 µM | > 100 µM | – | > 100 µM | > 100 µM | > 100 µM | > 100 µM | > 100 µM | > 100 µM | > 100 µM | > 100 µM | > 100 µM | > 100 µM | > 100 µM | > 100 µM | > 100 µM
Cc1ccc(S(=O)(=O)NC(=O)Nc2cccc(S(N)(=O)=O)c2)cc1 | > 100 µM | > 100 µM | > 100 µM | > 100 µM | > 100 µM | > 100 µM | > 100 µM | > 100 µM | > 100 µM | > 100 µM | > 100 µM | > 100 µM | > 100 µM | – | > 100 µM | > 100 µM | > 100 µM
COc1ccc2c(c1)CC1COc3cc(OC)ccc3C1O2 (configuration not stated) | > 100 µM | > 100 µM | > 100 µM | > 100 µM | > 100 µM | > 100 µM | > 100 µM | > 100 µM | – | > 100 µM | > 100 µM | > 100 µM | > 100 µM | > 100 µM | > 100 µM | > 100 µM | –
CC(C)=NNc1snnc1C(N)=O | > 100 µM | > 100 µM | > 100 µM | > 100 µM | > 100 µM | > 100 µM | > 100 µM | – | > 100 µM | > 100 µM | > 100 µM | > 100 µM | > 100 µM | > 100 µM | – | > 100 µM | > 100 µM
Cc1ccc(S(=O)(=O)N2CCCSCCSCCCN(S(=O)(=O)c3ccc(C)cc3)CC2)cc1 | > 100 µM | > 100 µM | > 100 µM | > 100 µM | > 100 µM | > 100 µM | > 100 µM | > 100 µM | > 100 µM | > 100 µM | > 100 µM | > 100 µM | > 100 µM | – | > 100 µM | > 100 µM | > 100 µM
O=c1cc(-c2ccccc2)[nH]c2ccc(S)cc12 | > 100 µM | > 100 µM | > 100 µM | – | > 100 µM | 39.8 µM | > 100 µM | > 100 µM | 68.2 µM | 51.9 µM | 45.4 µM | 29.5 µM | > 100 µM | > 100 µM | 48 µM | > 100 µM | > 100 µM
NC(=O)CN1CC(C2=C(O)CN(CC(N)=O)C2=O)=CC1=O | > 100 µM | > 100 µM | > 100 µM | > 100 µM | > 100 µM | > 100 µM | > 100 µM | > 100 µM | – | > 100 µM | > 100 µM | > 100 µM | > 100 µM | > 100 µM | > 100 µM | > 100 µM | > 100 µM
Cn1c(=O)c2sc3c4sc5c(=O)n(C)c6ccccc6c5c4sc3c2c2ccccc21 | > 100 µM | > 100 µM | > 100 µM | > 100 µM | > 100 µM | > 100 µM | – | > 100 µM | 97.6 µM | > 100 µM | > 100 µM | > 100 µM | > 100 µM | > 100 µM | > 100 µM | > 100 µM | > 100 µM
